Assay results: PubChem BioAssay AID2060627 (Molecular Pharmacology Branch, DTP, NCI, 2025)
Where “and” joins values, the source holds several entries; their conditions need not be identical. Equal entries are not always repeated.

Tested on: 156681-154-R-J1-PDC complex spheroid viability
Assay: Anticancer human tumor 156681-154-R-J1-PDC patient-derived melanoma cell line growth inhibition [CLK]
Details: for viability, T/C: stronger effect = lower value
How it was run: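 Patient-derived tumor cells grown as complex spheroids with HUVEC endothelial cells and mesenchymal stem cells, treated with drug combinations. Concentrations descend in half-log steps from near clinical Cmax, or from 10 microM if Cmax unknown.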

[1] = curve of first compound, second compound 0.0316 µM
[2] = curve of first compound, second compound 0.1 µM
[3] = curve of first compound, second compound 0.316 µM
[4] = curve of first compound, second compound 1 µM
[5] = curve of first compound, second compound 3.16 µM
[6] = curve of first compound, second compound 10 µM
[7] = second compound 0.0316 µM, first compound 0.0316 µM
[8] = second compound 0.0316 µM, first compound 0.1 µM
[9] = second compound 0.0316 µM, first compound 0.316 µM
[10] = second compound 0.0316 µM, first compound 1 µM
[11] = second compound 0.0316 µM, first compound 3.16 µM
[12] = second compound 0.0316 µM, first compound 10 µM
[13] = second compound 0.1 µM, first compound 0.0316 µM
[14] = second compound 0.1 µM, first compound 0.1 µM
[15] = second compound 0.1 µM, first compound 0.316 µM
[16] = second compound 0.1 µM, first compound 1 µM
[17] = second compound 0.1 µM, first compound 3.16 µM
[18] = second compound 0.1 µM, first compound 10 µM
[19] = second compound 0.316 µM, first compound 0.0316 µM
[20] = second compound 0.316 µM, first compound 0.1 µM
[21] = second compound 0.316 µM, first compound 0.316 µM
[22] = second compound 0.316 µM, first compound 1 µM
[23] = second compound 0.316 µM, first compound 3.16 µM
[24] = second compound 0.316 µM, first compound 10 µM
[25] = second compound 1 µM, first compound 0.0316 µM
[26] = second compound 1 µM, first compound 0.1 µM
[27] = second compound 1 µM, first compound 0.316 µM
[28] = second compound 1 µM, first compound 1 µM
[29] = second compound 1 µM, first compound 3.16 µM
[30] = second compound 1 µM, first compound 10 µM
[31] = second compound 3.16 µM, first compound 0.0316 µM
[32] = second compound 3.16 µM, first compound 0.1 µM
[33] = second compound 3.16 µM, first compound 0.316 µM
[34] = second compound 3.16 µM, first compound 1 µM
[35] = second compound 3.16 µM, first compound 3.16 µM
[36] = second compound 3.16 µM, first compound 10 µM
[37] = second compound 10 µM, first compound 0.0316 µM
[38] = second compound 10 µM, first compound 0.1 µM
[39] = second compound 10 µM, first compound 0.316 µM
[40] = second compound 10 µM, first compound 1 µM
[41] = second compound 10 µM, first compound 3.16 µM
[42] = second compound 10 µM, first compound 10 µM
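Further: spheroids exposed to the agents for seven days.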
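Wherever viability, T/C is given: 100% = DMSO vehicle control viability.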

SMILES: CC(CO)NC(=O)c1cc(-c2ccc(Cl)cc2)nn(-c2cnn(C)c2)c1=O (stereo not drawn) + CNC(=O)c1ccc(Nc2nc(OC3CCCC3)c3c(-c4ccc5nc(C)oc5c4)c[nH]c3n2)c(OC)c1
- IC50 [1]: > 10000 nM
- IC50 [2]: > 10000 nM
- IC50 [3]: 4910 nM
- IC50 [4]: < 31.6 nM
- IC50 [5]: < 31.6 nM
- IC50 [6]: < 31.6 nM
- viability, T/C [7]: 83.5%
- viability, T/C [8]: 107%
- viability, T/C [9]: 122%
- viability, T/C [10]: 101%
- viability, T/C [11]: 86.5%
- viability, T/C [12]: 56.8%
- viability, T/C [13]: 53.1%
- viability, T/C [14]: 84.6%
- viability, T/C [15]: 78.9%
- viability, T/C [16]: 81.7%
- viability, T/C [17]: 67.2%
- viability, T/C [18]: 50.6%
- viability, T/C [19]: 62.9%
- viability, T/C [20]: 71.4%
- viability, T/C [21]: 58.8%
- viability, T/C [22]: 58.8%
- viability, T/C [23]: 59.3%
- viability, T/C [24]: 38.2%
- viability, T/C [25]: 50.8%
- viability, T/C [26]: 42.9%
- viability, T/C [27]: 37.6%
- viability, T/C [28]: 44.8%
- viability, T/C [29]: 39.2%
- viability, T/C [30]: 35.3%
- viability, T/C [31]: 47.4%
- viability, T/C [32]: 36.9%
- viability, T/C [33]: 42.1%
- viability, T/C [34]: 36.7%
- viability, T/C [35]: 37.8%
- viability, T/C [36]: 23.2%
- viability, T/C [37]: 42.6%
- viability, T/C [38]: 43.8%
- viability, T/C [39]: 35.8%
- viability, T/C [40]: 35.6%
- viability, T/C [41]: 29.5%
- viability, T/C [42]: 21.2%

SMILES: C=CC(=O)N1CCN(c2nc(=O)n(-c3c(C)ccnc3C(C)C)c3nc(-c4c(O)cccc4F)c(F)cc23)C(C)C1 (stereo not drawn)
- viability, T/C (compound 0.0316 µM): 99.5% and 84.9%
- viability, T/C (compound 0.1 µM): 91.5% and 76.2%
- viability, T/C (compound 0.316 µM): 101% and 112%
- viability, T/C (compound 1 µM): 89.7% and 114%
- viability, T/C (compound 3.16 µM): 116% and 106%
- viability, T/C (compound 10 µM): 80.5% and 108%
- IC50 (curve of compound): > 10000 nM

SMILES: C#Cc1c(F)ccc2cc(O)cc(-c3ncc4c(N5CC6CCC(C5)N6)nc(OCC56CCCN5CC(F)C6)nc4c3F)c12 (stereo not drawn) + CN1CCN(c2cc(C(=O)Nc3cc4cc(-c5cnn(C)c5)ccc4cn3)ccn2)CC1
- IC50 [1]: > 10000 nM
- IC50 [2]: > 10000 nM
- IC50 [3]: < 31.6 nM
- IC50 [4]: < 31.6 nM
- IC50 [5]: < 31.6 nM
- IC50 [6]: < 31.6 nM
- viability, T/C [7]: 100%
- viability, T/C [8]: 81.5%
- viability, T/C [9]: 97%
- viability, T/C [10]: 120%
- viability, T/C [11]: 98.2%
- viability, T/C [12]: 119%
- viability, T/C [13]: 84.4%
- viability, T/C [14]: 86.7%
- viability, T/C [15]: 92.6%
- viability, T/C [16]: 100%
- viability, T/C [17]: 95.8%
- viability, T/C [18]: 97%
- viability, T/C [19]: 29%
- viability, T/C [20]: 22.5%
- viability, T/C [21]: 25.9%
- viability, T/C [22]: 26.7%
- viability, T/C [23]: 31.9%
- viability, T/C [24]: 20.6%
- viability, T/C [25]: 0.31%
- viability, T/C [26]: 2.37%
- viability, T/C [27]: 0.28%
- viability, T/C [28]: 0.23%
- viability, T/C [29]: 0.15%
- viability, T/C [30]: 1.07%
- viability, T/C [31]: 0.15%
- viability, T/C [32]: 0.39%
- viability, T/C [33]: 0.11%
- viability, T/C [34]: 0.49%
- viability, T/C [35]: 0.15%
- viability, T/C [36]: 0.12%
- viability, T/C [37]: 0.19%
- viability, T/C [38]: 2.4%
- viability, T/C [39]: 0.37%
- viability, T/C [40]: 0.17%
- viability, T/C [41]: 0.18%
- viability, T/C [42]: 0.17%

SMILES: C=CC(=O)N1CCN(c2nc(=O)n(-c3c(C)ccnc3C(C)C)c3nc(-c4c(O)cccc4F)c(F)cc23)C(C)C1 (stereo not drawn) + CN1CCN(c2cc(C(=O)Nc3cc4cc(-c5cnn(C)c5)ccc4cn3)ccn2)CC1
- IC50 [1]: > 10000 nM
- IC50 [2]: > 10000 nM
- IC50 [3]: < 31.6 nM
- IC50 [4]: < 31.6 nM
- IC50 [5]: < 31.6 nM
- IC50 [6]: < 31.6 nM
- viability, T/C [7]: 97.3%
- viability, T/C [8]: 88%
- viability, T/C [9]: 112%
- viability, T/C [10]: 129%
- viability, T/C [11]: 118%
- viability, T/C [12]: 97.9%
- viability, T/C [13]: 95.6%
- viability, T/C [14]: 78.6%
- viability, T/C [15]: 101%
- viability, T/C [16]: 99.9%
- viability, T/C [17]: 119%
- viability, T/C [18]: 100%
- viability, T/C [19]: 28.5%
- viability, T/C [20]: 27.9%
- viability, T/C [21]: 23.8%
- viability, T/C [22]: 30%
- viability, T/C [23]: 29.6%
- viability, T/C [24]: 10.9%
- viability, T/C [25]: 0.18%
- viability, T/C [26]: 3.34%
- viability, T/C [27]: 0.25%
- viability, T/C [28]: 0.17%
- viability, T/C [29]: 2%
- viability, T/C [30]: 0.82%
- viability, T/C [31]: 0.77%
- viability, T/C [32]: 0.21%
- viability, T/C [33]: 0.12%
- viability, T/C [34]: 0.11%
- viability, T/C [35]: 2.22%
- viability, T/C [36]: 3.15%
- viability, T/C [37]: 0.12%
- viability, T/C [38]: 0.14%
- viability, T/C [39]: 0.25%
- viability, T/C [40]: 0.17%
- viability, T/C [41]: 1.47%
- viability, T/C [42]: 0.3%
